Test results reported in patent publication US7247705B2, “Proteins having glucose transporter activity” (Takeda Pharmaceutical Company Limited, priority 2000, dated 2007).

What was measured:
Assay type in all cases: cell-based
[1] = molecular target: T1, human SGLT homolog (Homo sapiens, UniProt Q2M3M2, I269M); assay: α-methyl glucose uptake in COS7 cells carrying pME18S-human-SGLT-homolog (pTB2193); conditions: NaCl + 100 μM or 1 mM phlorizin, one-hour incubation, FIG. 12
T1 construct: expressed in transfected cells
T1 sequence (Q2M3M2 8-681 I269M): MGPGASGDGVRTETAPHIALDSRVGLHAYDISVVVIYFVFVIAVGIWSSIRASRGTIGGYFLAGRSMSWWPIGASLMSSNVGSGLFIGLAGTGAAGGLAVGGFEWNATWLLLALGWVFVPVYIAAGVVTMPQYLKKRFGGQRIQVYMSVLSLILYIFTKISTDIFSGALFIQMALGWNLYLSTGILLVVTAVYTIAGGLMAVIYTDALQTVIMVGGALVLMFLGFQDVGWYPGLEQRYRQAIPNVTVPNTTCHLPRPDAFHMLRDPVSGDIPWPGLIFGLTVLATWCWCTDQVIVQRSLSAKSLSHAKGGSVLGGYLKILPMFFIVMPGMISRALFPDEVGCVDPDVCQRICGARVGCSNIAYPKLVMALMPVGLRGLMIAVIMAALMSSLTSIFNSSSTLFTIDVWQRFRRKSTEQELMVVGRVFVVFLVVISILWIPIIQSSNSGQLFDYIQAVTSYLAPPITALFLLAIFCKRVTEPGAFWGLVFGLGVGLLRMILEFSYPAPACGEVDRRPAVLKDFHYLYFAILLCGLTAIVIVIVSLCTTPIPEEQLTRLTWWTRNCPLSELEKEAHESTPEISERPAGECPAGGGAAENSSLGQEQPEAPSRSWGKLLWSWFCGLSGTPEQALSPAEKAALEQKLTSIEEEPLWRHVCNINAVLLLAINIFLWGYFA
Description: Each 1 μg of the expression vectors for animal cells: pME18S, pME18S-hSGLT2, pME18S-human-SGLT-homolog (pTB2193), pME18S-human-SGLT-homolog-SNP-C1 (pTB2251), pME18S-human-SGLT-homolog-SNP-C2 (pTB2252) and pME18S-human-SGLT-homolog-SNP-C3 (pTB2253), and 3 μl of FuGENE 6 (Roche) were added to Opti-MEM (Gibco-BRL) 100 μl for 15 min at room temperature. These mixtures were then added to COS7 cells (1×10^6 cells/1 ml of DMEM containing 10% FBS/well in 6-well plate) so that each gene was introduced into the cells.
Experimental incorporation of α-methyl glucose into the COS7 cells carrying pME 18S, pME18S-hSGLT2, pME 18S-human-SGLT-homolog (pTB2193), pME18S-human-SGLT-homolog-SNP-C 1 (pTB2251), pME18S-human-SGLT-homolog-SNP-C2 (pTB2252), and pME18S-human-SGLT-homolog-SNP-C3 (pTB2253) was carried out according to the method described in Am. J. Physiol. 270:G833-G843 (1996) and J. Clin. Invest. 93:397-404 (1994).
These gene-transfected cells were cultured for a day, and then plated on a 96-well plate in a cell density of 3×10^4 cells/well and in a volume of 100 μl of DMEM containing 10% FBS per well, and further cultured overnight at 37° C. […] The radioactivity of ^14C incorporated into the cells was counted with 100 μl of a liquid scintillator added per well.

[2] = tested on: rat SGLT homolog; assay: α-methyl glucose uptake in COS7 cell expressing the rat SGLT homolog; conditions: COS7 cells, NaCl + 100 μM or 1 mM phlorizin, one-hour incubation, FIG. 9
Description: (§1) The cDNA of human SGLT1 (NCBI Accession NM_000343) was amplified by PCR from Clontech MTC panel kidney cDNA library, and subcloned into the expression vector for animal cells, pME18S between EcoRI and SpeI sites to prepare pME18S-hSGLT1. COS7 cells (5×10^5 cells) were transfected with each 1 μg of plasmids pME18S, pME18S-hSGLT1, and pME18S-rat-SGLT-homolog according to the FuGENE6 method (Roche).
(§2) Experimental incorporation of α-methyl glucose into the COS7 cell having pME18S, the COS7 cell expressing hSGLT1, and the COS7 cell expressing the rat SGLT homolog was carried out according to the method described in Am. J. Physiol. 270:G833-G843 (1996) and J. Clin. Invest. 93:397-404, 1994. These cells were plated on a 96-well plate in a cell density of 3×10^4 cells/well and in a volume of 100 μl of DMEM containing 10% FBS per well, and cultured overnight at 37° C. The cells were washed 3 times with 150 μl of a buffer solution (125 mM KCl, 1.2 mM KH2PO4, 2.5 mM CaCl2, 1.2 mM MgSO4, 4 mM Glutamine, 10 mM HEPES (pH 7.2), 0.1 mg/ml BSA), and cultured for an hour in the same buffer solution to remove the rest of glucose. […] The radioactivity of ^14C incorporated into the cells was counted with 100 μl of a liquid scintillator added per well.

[3] = molecular target: T2, mouse SGLT homolog (Mus musculus, UniProt Q8VDT1); assay: α-methyl glucose uptake in COS7 cell expressing the mouse SGLT homolog; conditions: COS7 cells, NaCl + 100 μM or 1 mM phlorizin, one-hour incubation, FIG. 6
T2 construct: expressed in transfected cells; host or cells: COS7 cells, transient, FuGENE6
T2 sequence (Q8VDT1 8-685): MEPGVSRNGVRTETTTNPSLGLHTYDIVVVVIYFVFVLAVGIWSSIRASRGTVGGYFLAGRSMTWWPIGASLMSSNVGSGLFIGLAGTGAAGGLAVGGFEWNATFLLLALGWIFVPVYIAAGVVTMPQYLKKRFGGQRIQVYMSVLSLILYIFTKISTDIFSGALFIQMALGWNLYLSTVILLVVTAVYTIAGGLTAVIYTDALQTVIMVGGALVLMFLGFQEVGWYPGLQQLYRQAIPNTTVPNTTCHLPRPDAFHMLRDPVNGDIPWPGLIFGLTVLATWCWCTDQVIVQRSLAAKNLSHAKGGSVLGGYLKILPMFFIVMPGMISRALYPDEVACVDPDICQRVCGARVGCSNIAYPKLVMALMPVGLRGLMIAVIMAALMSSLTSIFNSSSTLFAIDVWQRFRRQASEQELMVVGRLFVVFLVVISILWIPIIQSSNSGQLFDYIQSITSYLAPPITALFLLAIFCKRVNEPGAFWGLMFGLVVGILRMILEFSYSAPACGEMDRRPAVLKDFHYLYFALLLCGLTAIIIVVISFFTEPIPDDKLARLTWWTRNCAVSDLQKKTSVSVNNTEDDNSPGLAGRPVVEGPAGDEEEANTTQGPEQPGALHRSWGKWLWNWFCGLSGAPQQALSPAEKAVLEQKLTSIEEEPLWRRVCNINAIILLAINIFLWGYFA
Description: as §1, with “pME18S-mouse-SGLT-homolog” for “pME18S-rat-SGLT-homolog”
as §2, with “having pMEI 8S,” for “having pME18S,”, “the mouse” for “the rat”, “Invest. 93:397-404,1994.” for “Invest. 93:397-404, 1994.”

[4] = molecular target: T1, human SGLT homolog; assay: α-methyl glucose uptake in CHO cell expressing the SGLT homolog; conditions: CHO cells, NaCl + 10 μM or 100 μM Phlorizin, one-hour incubation, FIG. 3
Description: Each cDNA of human SGLT1 (NCBI Accession NM_000343) and SGLT2 (NCBI Accession NM_003041) was amplified by PCR from Clontech MTC panel kidney cDNA library, and subcloned into the expression vector for animal cells, pME18S between EcoRI and SpeI sites to prepare pME18S-hSGLT1 and pME18S-hSGLT2. CHO cells (1×10^6 cells) were co-transfected with each 5 μg of plasmids pME18S, pMEI 8S-SGLT homolog, pMEI 8S-hSGLT1, and pME18S-hSGLT2, and the expression vector for animal cells, pRSVneo […] according to the LipofectAMINE PLUS method (GIBCOBRL). These cells were cultured in DMEM containing G418 (500 μg/ml) and 10% FBS for 2 weeks to select the drug-resistant clones.
Total RNAs were extracted from respective G418-resistant CHO cells using RNAeasy Mini Kit (Quiagen). The expression of the SGLT homolog, hSGLT1 and hSGLT2 was quantified using TaqMan Gold RT-PCR Kit (PE Biosystems) according to the TaqMan PCR method to select CHO cells expressing each gene.
Experimental incorporation of α-methyl glucose into the CHO cell expressing the SGLT homolog, the CHO cell expressing hSGLT1, the CHO cell expressing hSGLT2, and the CHO cell having pME18S was carried out according to the method described in Am. J. Physiol. 270:G833-G843 (1996) and J. Clin. Invest. 93:397-404, 1994. […] The radioactivity of ^14C incorporated into the cells was counted with 100 μl of a liquid scintillator added per well.

O=C(CCc1ccc(O)cc1)c1c(O)cc(O)cc1O[C@@H]1O[C@H](CO)[C@@H](O)[C@H](O)[C@H]1O [phlorizin]
inhibited: inhibition of NaCl-dependent glucose uptake activity [1] | inhibition of Na+-dependent α-methyl glucose uptake activity [2] | inhibition of Na+-dependent α-methyl glucose uptake activity [3] | inhibition of Na-dependent α-methyl glucose uptake activity [4]
